Values quoted from earlier work in US20250255801A1, “Novel Parenteral Composition Comprising Linagliptin or its Salts” (Zenvision Pharma LLP, priority 2021, published 2025).
In brackets after ≈: the same amount, converted by molar mass.

Tests used:
[1] = high solubility and low permeability
[2] = not given; remark: listed apart in the source

## CC#CCn1c(N2CCC[C@@H](N)C2)nc2c1c(=O)n(Cc1nc(C)c3ccccc3n1)c(=O)n2C [Linagliptin, 1H-Purine-2,6-dione, 8-[(3R)-3-amino-1-piperidinyl]-7-(2-butyn-1-yl)-3,7-dihydro-3-methyl-1-[(4-methyl-2 quinazolinyl)methyl]-]
other
  oral systemic bioavailability: approximately 30%
[1]
  BCS class: Class III
[2]; acetone
  Solubility in acetone: ca. 1 mg/mL
[2]; ethanol
  Solubility in ethanol: ca. 10 mg/mL
[2]; isopropanol
  Solubility in isopropanol: < 1000 µg/mL
[2]; methanol
  Solubility in methanol: ca. 60 mg/mL
[2]; water
  Solubility in water: 900 µg/mL (≈ 1900 µM)
